Read-outs that look alike come from different tables or passages of the source.
What was measured:
SAOS2/B10 cells = experiment: Cellular proliferation, EdU incorporation (Click-it EdU); type: cell-based
Description: 3. […]
Ethynyl-2′-deoxyuridine; ThermoFisher Scientific) assay. […]

[1] = test system: diabetic Yucatan minipigs; experiment: Glucose lowering after s.c. bolus in type 1 diabetic Yucatan minipigs (PD); type: in vivo, minipig; settings: individual animal
Protocol: Data is presented as mean ± SEM, n = 6 animals per dose group. […] Source data are provided as a Source Data file.
IRPAs were characterized in a Type 1 diabetic Yucatan minipig model. Briefly, male Yucatan minipigs, from Sinclair, were rendered Type 1 diabetic by Alloxan injections following a proprietary protocol developed by Sinclair Research Center (Auxvasse, MO). […] Minipigs used in these studies ranged from 10 months to 3 years old, had plasma glucose levels of approximately 300–400 mg/dL and were instrumented with two Jugular vein vascular access ports (VAP).
IRPAs were administered to diabetic minipigs by subcutaneous injection. […] After dosing, sampling continued for 18 h.

Substance: IGF-1: insulin-like growth factor 1
- EC50 (SAOS2/B10 cells; geometric mean of all independent titrations, EdU incorporation, four-parameter fit, read-out: Cell Proliferation Assay Total Ave EC50): 149 pM
- EC50 (SAOS2/B10 cells; titration 2, read-out: Cell Proliferation Assay EC50-2): 397 pM
- EC50 (SAOS2/B10 cells; titration 3, read-out: Cell Proliferation Assay EC50-3): 154 pM
- EC50 (SAOS2/B10 cells; titration 4, read-out: Cell Proliferation Assay EC50-4): 81.9 pM
- EC50 (SAOS2/B10 cells; titration 5, read-out: Cell Proliferation Assay EC50-5): 103 pM
- EC50 (SAOS2/B10 cells; titration 6, read-out: Cell Proliferation Assay EC50-6): 68.8 pM
- EC50 (SAOS2/B10 cells; titration 7, read-out: Cell Proliferation Assay EC50-7): 56.8 pM
- EC50 (SAOS2/B10 cells; titration 8, read-out: Cell Proliferation Assay EC50-8): 842 pM
- EC50 (SAOS2/B10 cells; titration 9, read-out: Cell Proliferation Assay EC50-9): 438 pM
- EC50 (SAOS2/B10 cells; titration 10, read-out: Cell Proliferation Assay EC50-10): 153 pM

Substance: Tresiba: insulin Degludec from Novo Nordisk, a lipidated insulin
- ΔGlucose ([1]; 2 h post s.c. dose, replicate 1): -38 mg/dL
- ΔGlucose ([1]; 2 h post s.c. dose, replicate 2): -21 mg/dL
- ΔGlucose ([1]; 2 h post s.c. dose, replicate 3): 5 mg/dL
- ΔGlucose ([1]; 2 h post s.c. dose, replicate 4): 79 mg/dL
- ΔGlucose ([1]; 2 h post s.c. dose, replicate 5): 69 mg/dL
- ΔGlucose ([1]; 2 h post s.c. dose, replicate 6): -28 mg/dL
- ΔGlucose ([1]; 2 h post s.c. dose, replicate 7): 35 mg/dL
- ΔGlucose ([1]; 2 h post s.c. dose, replicate 8): -20 mg/dL
- ΔGlucose ([1]; 2 h post s.c. dose, replicate 9): 40 mg/dL
- ΔGlucose ([1]; 2 h post s.c. dose, replicate 10): 8 mg/dL
- ΔGlucose ([1]; 2 h post s.c. dose, replicate 11): -118 mg/dL
- ΔGlucose ([1]; 2 h post s.c. dose, replicate 12): 93 mg/dL
- ΔGlucose ([1]; 2 h post s.c. dose, replicate 13): -13 mg/dL
- ΔGlucose ([1]; 2 h post s.c. dose, replicate 14): 18 mg/dL
- ΔGlucose ([1]; 2 h post s.c. dose, replicate 15): -36 mg/dL
- ΔGlucose ([1]; 2 h post s.c. dose, replicate 16): 58 mg/dL
- ΔGlucose ([1]; 2 h post s.c. dose, replicate 17): -126 mg/dL
- ΔGlucose ([1]; 2 h post s.c. dose, replicate 18): -12 mg/dL
- ΔGlucose ([1]; 2 h post s.c. dose, replicate 19): -60 mg/dL
- ΔGlucose ([1]; 3 h post s.c. dose, replicate 1): -67 mg/dL
- ΔGlucose ([1]; 3 h post s.c. dose, replicate 2): -79 mg/dL
- ΔGlucose ([1]; 3 h post s.c. dose, replicate 3): -1 mg/dL
- ΔGlucose ([1]; 3 h post s.c. dose, replicate 4): 32 mg/dL
- ΔGlucose ([1]; 3 h post s.c. dose, replicate 5): 97 mg/dL
- ΔGlucose ([1]; 3 h post s.c. dose, replicate 6): -58 mg/dL
- ΔGlucose ([1]; 3 h post s.c. dose, replicate 7): 20 mg/dL
- ΔGlucose ([1]; 3 h post s.c. dose, replicate 8): -73 mg/dL
- ΔGlucose ([1]; 3 h post s.c. dose, replicate 9): 97 mg/dL
- ΔGlucose ([1]; 3 h post s.c. dose, replicate 10): -61 mg/dL
- ΔGlucose ([1]; 3 h post s.c. dose, replicate 11): -233 mg/dL
- ΔGlucose ([1]; 3 h post s.c. dose, replicate 12): -9 mg/dL
- ΔGlucose ([1]; 3 h post s.c. dose, replicate 13): -76 mg/dL
- ΔGlucose ([1]; 3 h post s.c. dose, replicate 14): -2 mg/dL
- ΔGlucose ([1]; 3 h post s.c. dose, replicate 15): -89 mg/dL
- ΔGlucose ([1]; 3 h post s.c. dose, replicate 16): 57 mg/dL
- ΔGlucose ([1]; 3 h post s.c. dose, replicate 17): -188 mg/dL
- ΔGlucose ([1]; 3 h post s.c. dose, replicate 18): -49 mg/dL
- ΔGlucose ([1]; 3 h post s.c. dose, replicate 19): -86 mg/dL
- ΔGlucose ([1]; 4 h post s.c. dose, replicate 1): -114 mg/dL
- ΔGlucose ([1]; 4 h post s.c. dose, replicate 2): -145 mg/dL
- ΔGlucose ([1]; 4 h post s.c. dose, replicate 3): -76 mg/dL
- ΔGlucose ([1]; 4 h post s.c. dose, replicate 4): 21 mg/dL
- ΔGlucose ([1]; 4 h post s.c. dose, replicate 5): 89 mg/dL
- ΔGlucose ([1]; 4 h post s.c. dose, replicate 6): -90 mg/dL
- ΔGlucose ([1]; 4 h post s.c. dose, replicate 7): -30 mg/dL
- ΔGlucose ([1]; 4 h post s.c. dose, replicate 8): -110 mg/dL
- ΔGlucose ([1]; 4 h post s.c. dose, replicate 9): 88 mg/dL
- ΔGlucose ([1]; 4 h post s.c. dose, replicate 10): -83 mg/dL
- ΔGlucose ([1]; 4 h post s.c. dose, replicate 11): -283 mg/dL
- ΔGlucose ([1]; 4 h post s.c. dose, replicate 12): -105 mg/dL
- ΔGlucose ([1]; 4 h post s.c. dose, replicate 13): -142 mg/dL
- ΔGlucose ([1]; 4 h post s.c. dose, replicate 14): -49 mg/dL
- ΔGlucose ([1]; 4 h post s.c. dose, replicate 15): -147 mg/dL
- ΔGlucose ([1]; 4 h post s.c. dose, replicate 16): 24 mg/dL
- ΔGlucose ([1]; 4 h post s.c. dose, replicate 17): -217 mg/dL
- ΔGlucose ([1]; 4 h post s.c. dose, replicate 19): -118 mg/dL
- ΔGlucose ([1]; 5 h post s.c. dose, replicate 1): -180 mg/dL
- ΔGlucose ([1]; 5 h post s.c. dose, replicate 2): -224 mg/dL
- ΔGlucose ([1]; 5 h post s.c. dose, replicate 3): -181 mg/dL
- ΔGlucose ([1]; 5 h post s.c. dose, replicate 4): 9 mg/dL
- ΔGlucose ([1]; 5 h post s.c. dose, replicate 5): 29 mg/dL
- ΔGlucose ([1]; 5 h post s.c. dose, replicate 6): -129 mg/dL
- ΔGlucose ([1]; 5 h post s.c. dose, replicate 7): -47 mg/dL
- ΔGlucose ([1]; 5 h post s.c. dose, replicate 8): -151 mg/dL
- ΔGlucose ([1]; […] post s.c. dose, replicate 4): 27 mg/dL
- ΔGlucose ([1]; […] post s.c. dose, replicate 12): -48 mg/dL

— publication PMC8854621, “Functionally selective signaling and broad metabolic benefits by novel insulin receptor partial agonists” (Nature Communications, 2022)
